# Experimental data taken from US20110039783A1, “PEPTIDE HAVING HYPOTENSIVE ACTIVITY” (DAIICHI SANKYO COMPANY LIMITED, priority 2007, published 2011).
# “Also recorded” adds a separate entry of the source.
# Legend:
# [1] = system: blood pressure of awake C57BL/6 mice; test: Hypotensive activity on awake mice (tail cuff, systolic blood pressure); type: in vivo, mouse; conditions: caudal vein, 0.1 and 1 mg/kg, FIG. 2, listed as HC021-007
# Procedure: A C57BL/6 mice with a body weight of 30 to 40 g (Charles River Laboratories Japan, Inc.) were each placed in a retaining appliance of a non-preheating, non-invasive blood pressure monitor for mice and rats (MODEL MK-2000; Muromachi Kikai Co., Ltd.), and a cuff-pulse sensor was then attached to the root of the tail. After confirming that the blood pressure of each mouse had been stable, the mouse was subjected to the experiment.
# A peptide solution was prepared by diluting each peptide with a normal saline, depending on the dose. In the case of the dose of 0.1 mg/kg, a 0.02 mg/mL peptide solution was prepared. In the case of the dose of 1 mg/kg, a 0.2 mg/mL peptide solution was prepared. The amount of the solution to be administered was set at 5 mL/kg. As a positive control, a human atrial natriuretic peptide (hANP) was used. As a negative control, a normal saline was used. Each peptide was administered via the caudal vein using a syringe with a 29G needle. Three and ten minutes after the administration, the systolic blood pressure and the heart rate were measured.
# [2] = system: blood pressure of anesthetized Sprague-Dawley IGS male rats; test: Hypotensive activity in anesthetized rats, invasive blood pressure measurement after intravenous administration; type: in vivo, rat; conditions: for Hypotensive activity (dose/rat) 10 nmol / Hypotensive activity (dose/rat) 30 nmol: intravenous; for Hypotensive activity (dose/rat) 10 nmol: 10 nmol/rat; for Hypotensive activity (dose/rat) 30 nmol: 30 nmol/rat
# [3] = system: blood pressure of awake Sprague-Dawley IGS male rats; test: Hypotensive activity on awake rats; type: in vivo, rat; set-up: key to Hypotensive activity (dose/rat) 10 nmol / Hypotensive activity (dose/rat) 30 nmol: Extremely strong activity (+++): A decrease in systolic blood pressure is 30 mmHg or more, and the time required for recovery is 5 minutes or more.; Strong activity (++): A decrease in systolic blood pressure is 20 mmHg or more and less than 30 mmHg, or the time required for recovery is less than 5 minutes.; Activity observed (+): A decrease in systolic blood pressure is less than 20 mmHg.; Activity not observed (−)
# Procedure: 50 mg/kg pentobarbital sodium was intraperitoneally administered to 8- to 10-week-old Sprague-Dawley IGS male rats (Charles River Laboratories Japan, Inc.) for anesthesia. Thereafter, a jugular vein cannula (Silascon 0.5-1.0) was inserted into each rat for use in peptide administration, and a carotid artery cannula (PE50) was inserted into each rat for use in the measurement of blood pressure. At least 3 hours after the surgery, it was confirmed that the rats were awoken from the anesthesia based on general conditions such as the posture, respiration, and the like of the rats. Thereafter, the rats were subjected to the experiment.
# The carotid artery cannula was connected with a pressure transducer (PE23XL; manufactured by Nihon Kohden Corporation), and an apparatus formed by incorporating a blood pressure measurement unit (AP-641G; manufactured by Nihon Kohden Corporation) and an instantaneous heart rate measurement unit (AT-601G; manufactured by Nihon Kohden Corporation) into a multi-purpose preamplifier (RP-6004; manufactured by Nihon Kohden Corporation) was used to record the blood pressure and heart rate of each rat. The blood pressure was calibrated using a mercury manometer included in a stand-type electromanometer (MP-25S; manufactured by Nihon Kohden Corporation). The recording paper was adjusted, such that 20 mm or 40 mm on the recording paper corresponded to 100 mmHg. A solvent in which each peptide had been dissolved was used as a negative control in blood pressure fluctuation.
# Each peptide was dissolved in a concentration of 1 mM in a 5% mannitol solution to prepare a peptide solution. Thereafter, depending on dose, it was diluted with a 5% mannitol solution. In the case of the dose of 10 nmol/rat, a 1 mM peptide solution was 30 times diluted, and 300 μL of the diluted solution was administered. In the case of the dose of 30 nmol/rat, a 1 mM peptide solution was 10 times diluted, and 300 μl of the diluted solution was administered. In the case of the dose of 100 nmol/rat, a 1 mM peptide solution was 3 times diluted, and 300 μL of the diluted solution was administered. Each peptide was intravenously administered via the jugular vein cannula, and the systolic blood pressure, diastolic blood pressure, and heart rate were then measured.
# The definition of the strength of hypotensive activity was the same as that of Example 3.
substance,measurement,setting,value
ATVRNEDKWKPLNNPRNRDLFFRRLQAYFK-amide (C-terminal amide) [Compound 5],"hypotensive activity (in words), change in systolic blood pressure",[1],exhibited a hypotensive activity even on the awake mice; also recorded: lower the blood pressure of awake mice
same,Hypotensive activity (dose/rat) 10 nmol,"[2]; Table 1, anesthetized rats","++ (Strong activity (++): A decrease in systolic blood pressure is 20 mmHg or more and less than 30 mmHg, or the time required for recovery is less than 5 minutes.)"
same,Hypotensive activity (dose/rat) 30 nmol,"[2]; Table 1, anesthetized rats","+++ (Extremely strong activity (+++): A decrease in systolic blood pressure is 30 mmHg or more, and the time required for recovery is 5 minutes or more.)"
same,Hypotensive activity (dose/rat) 10 nmol,"[2]; Table 2, anesthetized rats","++ (Strong activity (++): A decrease in systolic blood pressure is 20 mmHg or more and less than 30 mmHg, or the time required for recovery is less than 5 minutes.)"
same,Hypotensive activity (dose/rat) 30 nmol,"[2]; Table 2, anesthetized rats","+++ (Extremely strong activity (+++): A decrease in systolic blood pressure is 30 mmHg or more, and the time required for recovery is 5 minutes or more.)"
same,Hypotensive activity (dose/rat) 10 nmol,"[2]; Table 3, anesthetized rats","++ (Strong activity (++): A decrease in systolic blood pressure is 20 mmHg or more and less than 30 mmHg, or the time required for recovery is less than 5 minutes.)"
same,Hypotensive activity (dose/rat) 30 nmol,"[2]; Table 3, anesthetized rats","+++ (Extremely strong activity (+++): A decrease in systolic blood pressure is 30 mmHg or more, and the time required for recovery is 5 minutes or more.)"
same,dose dependence of hypotensive activity,"[2]; anesthetized rats, 10, 30, 100 nmol/rat",enhanced their hypotensive activity in a dose-dependent manner
same,hypotensive activity (in words),"[2]; anesthetized rats, Table 1 and FIG. 1, 10 or 30 nmol/rat, listed as HC021-007",observed to have a hypotensive activity; also recorded: act to lower the blood pressure of rats
same,hypotensive activity (in words),[3],observed to have a hypotensive activity even on the awake rats
same,Hypotensive activity (dose/rat) 10 nmol,"[3]; Table 4, intravenous, 10 nmol/rat",−
same,Hypotensive activity (dose/rat) 30 nmol,"[3]; Table 4, intravenous, 30 nmol/rat","++ (Strong activity (++): A decrease in systolic blood pressure is 20 mmHg or more and less than 30 mmHg, or the time required for recovery is less than 5 minutes.)"
same,Hypotensive activity (dose/rat) 100 nmol,"[3]; Table 4, intravenous, 100 nmol/rat","+++ (Extremely strong activity (+++): A decrease in systolic blood pressure is 30 mmHg or more, and the time required for recovery is 5 minutes or more.)"
